Assay results: ChEMBL document CHEMBL1140000, “Synthetic control of interchromophoric interaction in cationic bis-porphyrins toward efficient DNA photocleavage and singlet oxygen production in aqueous solution” (Bioorg Med Chem, 2007)

What was measured:
Escherichia coli [1] = assay: Photocleavage activity against pUC18 DNA assessed as conversion supercoiled to nicked circular form relative to H2pXy
Escherichia coli [2] = assay: Photocleavage activity against pUC18 DNA assessed as conversion supercoiled to nicked circular form relative to H2TMPyP
Escherichia coli [3] = assay: Photocleavage activity against pUC18 DNA assessed as conversion supercoiled to nicked circular form relative to H2pXy-Zn complex
Escherichia coli [4] = assay: Photocleavage activity against pUC18 DNA assessed as conversion supercoiled to nicked circular form relative to H2mXy-Zn complex
Escherichia coli [5] = assay: Photocleavage activity against pUC18 DNA assessed as increase in conversion supercoiled to nicked circular form in presence of 20% DMSO after 30 mins

Structure (SMILES) | Activity (Escherichia coli [1]) [%] | Activity (Escherichia coli [2]) [%] | Activity (Escherichia coli [3]) [%] | Activity (Escherichia coli [4]) [%] | Activity (Escherichia coli [5]) [%]
C[n+]1ccc(-c2c3nc(c(-c4cc[n+](C)cc4)c4ccc([nH]4)c(-c4cc[n+](C)cc4)c4nc(c(-c5ccc(C(=O)NCc6cccc(CNC(=O)c7ccc(-c8c9nc(c(-c%10cc[n+](C)cc%10)c%10ccc([nH]%10)c(-c%10cc[n+](C)cc%10)c%10nc(c(-c%11cc[n+](C)cc%11)c%11ccc8[nH]%11)C=C%10)C=C9)cc7)c6)cc5)c5ccc2[nH]5)C=C4)C=C3)cc1 | 25 | 28 | 6 | 12 | –
C[n+]1ccc(-c2c3nc(c(-c4cc[n+](C)cc4)c4ccc([nH]4)c(-c4cc[n+](C)cc4)c4nc(c(-c5ccc(C(=O)NCc6ccc(CNC(=O)c7ccc(-c8c9nc(c(-c%10cc[n+](C)cc%10)c%10ccc([nH]%10)c(-c%10cc[n+](C)cc%10)c%10nc(c(-c%11cc[n+](C)cc%11)c%11ccc8[nH]%11)C=C%10)C=C9)cc7)cc6)cc5)c5ccc2[nH]5)C=C4)C=C3)cc1 | – | – | 26 | – | 95
